In brackets after ≈: the same amount, converted by molar mass. Several values for one entry are separate records, joined by “and”; a condition that tells them apart may be missing. Equal values may be shown once. Read-outs that look alike come from different tables or passages of the source.
What was measured:
MSSA T811355 = assay: Broth microdilution (BMD) MIC; format: cell-based; conditions: Staphylococcus aureus, read-out: Oritavancin BMD MIC
Text: (§1) To date, only the broth microdilution (BMD) minimal inhibitory concentration (MIC) test is a reference method accepted by the Clinical Laboratory Standards Institute (CLSI) for use in determining the susceptibility of a bacterial isolate to oritavancin (Methods for Dilution Antimicrobial Susceptibility Tests for Bacteria That Grow Aerobically; Approved Standard, CLSI document M7-A8, 8th ed. Clinical and Laboratory Standards Institute, Wayne, Pa. 2009; Performance Standards for Antimicrobial Susceptibility Testing; Eighteenth Informational Supplement, CLSI document M100-S18, 7th ed. Clinical and Laboratory Standards Institute, Wayne, Pa. 2008).

MSSA U781969 = assay: Broth microdilution (BMD) MIC; format: cell-based; conditions: Staphylococcus aureus, read-out: Oritavancin BMD MIC
Text: as §1

MRSA V406957 = assay: Broth microdilution (BMD) MIC; format: cell-based; conditions: Staphylococcus aureus, read-out: Oritavancin BMD MIC
Text: as §1

hVISA NRS2 = assay: Broth microdilution (BMD) MIC; format: cell-based; conditions: Staphylococcus aureus, read-out: Oritavancin BMD MIC
Text: as §1

MRSA NRS123 = assay: Broth microdilution (BMD) MIC; format: cell-based; conditions: Staphylococcus aureus, read-out: Oritavancin BMD MIC
Text: as §1

MRSA Q670607 = assay: Broth microdilution (BMD) MIC; format: cell-based; conditions: Staphylococcus aureus, read-out: Oritavancin BMD MIC
Text: as §1

MRSA V288615 = assay: Broth microdilution (BMD) MIC; format: cell-based; conditions: Staphylococcus aureus, read-out: Oritavancin BMD MIC
Text: as §1

MSSA Q141066 = assay: Broth microdilution (BMD) MIC; format: cell-based; conditions: Staphylococcus aureus, read-out: Oritavancin BMD MIC
Text: as §1

MSSA ATCC 25923 = assay: Disk diffusion assay (zone of inhibition); format: cell-based, Staphylococcus aureus; conditions: for Average zone diameter: disks from 18 mg/ml oritavancin in 5% P80, 3-hour prediffusion; for zone of inhibition at 9000 µg/mL: read-out: Inhibition zone diameter, ATCC 25923; for zone of inhibition at 50 µg/disc: read-out: Inhibition zone diameter, MSSA ATCC 25923, 50 μg oritavancin, dried approx. 3 hours, estimate of diameter; for zone of inhibition at 45 µg/disc: 45 μg oritavancin in 0.002% P80
Text: The study was designed to identify conditions that improve oritavancin diffusion in agar and consequently yield a zone diameter ≧15 mm for the CLSI quality control strain MSSA ATCC 25923. Excipients that increased the disk diffusion of oritavancin in agar relative to disks containing only oritavancin were identified and selected for further study. […] A prediffusion step at room temperature was introduced to maximize oritavancin diffusion prior to initiation of bacterial growth. In this step, the antimicrobial disks were placed on agar plates seeded with a bacterial isolate and incubated at room temperature for 3 hours. Plates were then incubated overnight at 37° C. Zone diameters around the disks in which bacterial growth was inhibited were measured with a ruler and reported in millimeters.
Ethanol-sterilized Whatman paper disks (6 mm diameter) were allowed to dry then impregnated with 20 microliters of oritavancin solution containing total amounts ranging from 90 to 360 micrograms. Disks were allowed to dry at room temperature for various times prior to use.
Bacterial suspensions were prepared and adjusted to an optical density of 0.1 at 600 nm. […] The plate was swabbed a second time, perpendicular to the orientation of the first swab. To assess the impact of prediffusion on diameter of inhibition zones, two disks were immediately placed on one half of the plate and the plate was incubated for 3 hours at room temperature. After 3 hours, two additional disks were placed on the other half of the plate then the plate was incubated overnight at 37° C. Zone diameters were measured with a ruler and reported in millimeters. […]
Oritavancin powder was dissolved in freshly-prepared solutions of the indicated excipients at concentrations of 0.625, 1.25, 2.5, 5, and 10 mg/ml (adjusted for potency based on lot 875561L00 purity of 83.1%) by vortexing for a minimum of 5 minutes. Oritavancin solutions in the various excipients, while not visually clear, were free from any apparent particulates as assessed visually. Sterile Oxoid blank disks were impregnated with 20 μl of these oritavancin solutions, resulting in oritavancin disk loads ranging from 12.5 to 200 μg. Unless indicated otherwise, disks were allowed to dry overnight at room temperature prior to use.
[…] Swabbing was continued at a right angle and then at an oblique angle to the first and second swabs. Disks were placed upon the seeded plates with sterile forceps. Plates were then incubated overnight at 37° C. and inhibition zone diameters were measured with a ruler and reported in millimeters.

In the case of `CN[C@H](CC(C)C)C(=O)N[C@H]1C(=O)N[C@@H](CC(N)=O)C(=O)N[C@H]2C(=O)N[C@H]3C(=O)N[C@H](C(=O)N[C@H](C(=O)O)c4cc(O)cc(O)c4-c4cc3ccc4O)[C@H](O[C@H]3C[C@](C)(N)[C@@H](O)[C@H](C)O3)c3ccc(c(Cl)c3)Oc3cc2cc(c3O[C@@H]2O[C@H](CO)[C@@H](O)[C@H](O)[C@H]2O[C@H]2C[C@](C)(NCc3ccc(-c4ccc(Cl)cc4)cc3)[C@@H](O)[C@H](C)O2)Oc2ccc(cc2Cl)[C@H]1O` [oritavancin, N-(4-(4-chlorophenyl)benzyl)A82846B], the MIC (MSSA T811355) is reported as 0.03 µg/mL (≈ 0.0167 µM), the MIC (MSSA U781969) is reported as 0.03 µg/mL (≈ 0.0167 µM) and the MIC (MRSA V406957) is reported as 0.12 µg/mL (≈ 0.0669 µM). It also gave an MIC (hVISA NRS2) of 0.25 µg/mL (≈ 0.139 µM), an MIC (MRSA NRS123) of 0.03 µg/mL (≈ 0.0167 µM) and an MIC (MRSA Q670607) of 0.03 µg/mL (≈ 0.0167 µM). For the same molecule, the MIC (MRSA V288615) was 0.03 µg/mL (≈ 0.0167 µM), the MIC (MSSA Q141066) was 0.03 µg/mL (≈ 0.0167 µM) and the Inhibition zone diameter (MSSA ATCC 25923; ATCC 25923, 25 μg (20 μl of 1.25 mg/ml) in 4% P80/Span 80 (1:1), calcium alginate swab, dried overnight) was 22 mm and 20 mm. It also gave an Inhibition zone diameter (MSSA ATCC 25923; ATCC 25923, 20 μl of 9 mg/ml oritavancin in 2.5% P80, prediffusion at 4° C. 3 h, duplicate determinations) of 19 mm, an Inhibition zone diameter (MSSA ATCC 25923; ATCC 25923, 20 μl of 9 mg/ml oritavancin in 2.5% P80, prediffusion at 4° C. 6 h, duplicate determinations) of 22 mm and an Inhibition zone diameter (MSSA ATCC 25923; ATCC 25923, 20 μl of 9 mg/ml oritavancin in 2.5% P80, prediffusion at room temperature 3 h, duplicate determinations) of 17 mm. The Inhibition zone diameter (MSSA ATCC 25923; ATCC 25923, 20 μl of 9 mg/ml oritavancin in 2.5% P80, prediffusion at room temperature 6 h, duplicate determinations) was 18.5 mm, the Inhibition zone diameter (MSSA ATCC 25923; ATCC 25923, Oxoid disks, 20 μl of 18 mg/ml oritavancin in 5% P80, stored 30 days at room temperature, prediffusion 6 hours at 4° C.) was 17.5 mm and the Average zone diameter (MSSA ATCC 25923; ATCC 25923, stored 1 day at room temperature) was 15.0 mm. For the same molecule, the Average zone diameter (MSSA ATCC 25923; ATCC 25923, stored 4 days at room temperature) was 15.8 mm, the Average zone diameter (MSSA ATCC 25923; ATCC 25923, stored 6 days at room temperature) was 16.3 mm and the Average zone diameter (MSSA ATCC 25923; ATCC 25923, stored 8 days at room temperature) was 17.0 mm. For the same molecule, the Average zone diameter (MSSA ATCC 25923; ATCC 25923, used same day) was 14.0 mm, the “Increase of the area of the zone of clearance by prediffusion” value (MSSA ATCC 25923; MSSA ATCC 25923, 360 μg oritavancin in 0.002% P80) was “approximately 24%” and the Zone diameters (MSSA ATCC 25923; MSSA ATCC 25923, CAMHA containing 1% P80, disks with various concentrations of oritavancin in 0.002% P80, even with 3 h prediffusion) was < 15 mm. For the same molecule, the Inhibition zone diameter (MSSA ATCC 25923; MSSA ATCC 25923, Oxoid disk, 180 μg, 5% P80, stored 7 days, prediffusion 3 h at 4° C., duplicates) was 12.5 mm, the Inhibition zone diameter (MSSA ATCC 25923; MSSA ATCC 25923, Oxoid disk, 270 μg, 5% P80, stored 7 days, prediffusion 3 h at 4° C., duplicates) was 13.5 mm and the Inhibition zone diameter (MSSA ATCC 25923; MSSA ATCC 25923, Whatman #5 disk, 180 μg, 2.5% P80, stored 7 days, prediffusion 3 h at 4° C., duplicates) was 16 mm. For the same molecule, the Inhibition zone diameter (MSSA ATCC 25923; MSSA ATCC 25923, Whatman #5 disk, 360 μg, 5% P80, stored 7 days, prediffusion 3 h at 4° C., duplicates) was 16.5 mm, the Zone diameter (MSSA ATCC 25923; MSSA quality control strain ATCC 25923, different combinations of the alterations to the traditional assay) was “up to 24 mm” and the zone of inhibition at 360 µg/disc (MSSA ATCC 25923; Staphylococcus aureus, 3 h, read-out: Average zone diameter, ATCC 25923, 360 μg oritavancin, excipient 10% HPCD, disks made same day, 3 h prediffusion, average of 2 disks) was 17.5 mm. It also gave a zone of inhibition at 9000 µg/mL (MSSA ATCC 25923; Staphylococcus aureus, 3 h, 20 μl of 9 mg/ml oritavancin in 2.5% P80, prediffusion at 4° C. 3 h, duplicate determinations) of 18 mm, a zone of inhibition at 9000 µg/mL (MSSA ATCC 25923; Staphylococcus aureus, 3 h, 20 μl of 9 mg/ml oritavancin in 2.5% P80, prediffusion at room temperature 3 h, duplicate determinations) of 16.5 mm and a zone of inhibition at 50 µg/disc (MSSA ATCC 25923; Staphylococcus aureus, 3 h, 0.5% P80/Span 80 (35:65) in water) of 10 mm. The zone of inhibition at 50 µg/disc (MSSA ATCC 25923; Staphylococcus aureus, 3 h, 1% P80/Span 80 (35:65) in water) was 15 mm, the zone of inhibition at 50 µg/disc (MSSA ATCC 25923; Staphylococcus aureus, 3 h, 2% P80/Span 80 (35:65) in water) was 20 mm and the zone of inhibition at 50 µg/disc (MSSA ATCC 25923; Staphylococcus aureus, 3 h, 4% P80/Span 80 (35:65) in water) was 28 mm. For the same molecule, the zone of inhibition at 9000 µg/mL (MSSA ATCC 25923; Staphylococcus aureus, 6 h, 20 μl of 9 mg/ml oritavancin in 2.5% P80, prediffusion at 4° C. 6 h, duplicate determinations) was 21 mm, the zone of inhibition at 9000 µg/mL (MSSA ATCC 25923; Staphylococcus aureus, 6 h, 20 μl of 9 mg/ml oritavancin in 2.5% P80, prediffusion at room temperature 6 h, duplicate determinations) was 18 mm and the zone of inhibition at 360 µg/disc (MSSA ATCC 25923; Staphylococcus aureus, 192 h, read-out: Zone diameter (mm ± SD), ATCC 25923, 360 μg in 5% P80, Experiment 2, disks stored 8 days, no prediffusion) was 14.5 mm. For the same molecule, the zone of inhibition at 360 µg/disc (MSSA ATCC 25923; Staphylococcus aureus, 216 h, read-out: Average zone diameter, MSSA ATCC 25923, 360 μg oritavancin in 0.002% P80, without prediffusion, two disks (FIG. 1A), disks stored 9 days) was 10.5 mm, the zone of inhibition at 360 µg/disc (MSSA ATCC 25923; Staphylococcus aureus, 216 h, read-out: Average zone diameter, MSSA ATCC 25923, 360 μg oritavancin in 5% P80, with prediffusion (FIG. 1D), disks stored 9 days) was 17 mm and the zone of inhibition at 360 µg/disc (MSSA ATCC 25923; Staphylococcus aureus, 216 h, read-out: Average zone diameter, MSSA ATCC 25923, 360 μg oritavancin in 5% P80, without prediffusion (FIG. 1B), disks stored 9 days) was 14.8 mm. The zone of inhibition at 360 µg/disc (MSSA ATCC 25923; Staphylococcus aureus, 336 h, read-out: Zone diameter (mm ± SD), ATCC 25923, 360 μg in 5% P80, Experiment 1, disks stored 14 days, no prediffusion) was 15.3 ± 0.4 mm, the zone of inhibition at 360 µg/disc (MSSA ATCC 25923; Staphylococcus aureus, read-out: Average zone diameter, ATCC 25923, 360 μg oritavancin, excipient 5% P80, disks stored 5 days at room temperature, 3 h prediffusion, average of 2 disks) was 19 mm and the zone of inhibition at 45 µg/disc (MSSA ATCC 25923; Staphylococcus aureus, read-out: Average zone diameter, MSSA ATCC 25923, CAMHA containing 1% P80, no prediffusion) was 12 mm. The zone of inhibition at 45 µg/disc (MSSA ATCC 25923; Staphylococcus aureus, read-out: Average zone diameter, MSSA ATCC 25923, CAMHA containing 1% P80, prediffusion) was 12.3 mm and the zone of inhibition at 90 µg/disc (MSSA ATCC 25923; Staphylococcus aureus, read-out: Average zone diameter, MSSA ATCC 25923, 90 μg oritavancin in 0.002% P80, CAMHA containing 1% P80, no prediffusion) was 11.8 mm.
